Assay results published in US9315522B2, “Antibacterial compounds” (JANSSEN SCIENCES IRELAND UC, priority 2012, dated 2016).
Converted amounts (≈) assume the structure as drawn. “And” between values parts separate entries of the source, which are not always exact repeats. Equal values may be shown once.

Experiments:
[1] = Cytotoxicity MTT assay (HELAM); assay type: cell-based, Human; details: human, HelaM cells, read-out: HELAM (222.125) CC50
Protocol: Cytotoxicity of the compounds was evaluated using the MTT assay. Human HelaM cells grown in 96-well plates were exposed to serial dilutions of the tested compounds (final volume of 0.2 ml) and incubated for 72 hours at 37° C. and 5% CO2. Inhibitors are typically varied over the range of 25 to 0.8 μM. The final DMSO concentration in the assay is 0.5%. MTT (3-(4,5-Dimethylthiazol-2-yl)-2,5-diphenyltetrazolium bromide, a tetrazole) was added and reduced to purple formazan only in living cells. Solubilization of the formazan crystals was achieved by adding 100 μl 2-propanol. Cell viability was determined by measuring the absorbance of the reduced formazan, giving a purple color, at 540 nm and 690 nm. The absorbance measured at 690 nm was automatically subtracted from the absorbance at 540 nm, to eliminate the effects of non-specific absorption. The percent cytotoxicity achieved by the compounds was calculated according to standard methods. Cytotoxicity is reported as CC50, the concentration that causes a 50% reduction in cell viability.
The results are depicted in the table(s) below (HELAM).

S. aureus = experiment: Antibacterial susceptibility testing, IC90 determination with 10% human serum (STA + 10% HS); assay type: cell-based, Staphylococcus aureus; details: Staphylococcus aureus, human serum at final concentration of 10%, read-out: STA + 10% HS (361.169) IC90
Protocol: (§1) The following bacteria were used: Staphylococcus aureus ATCC 29213, methicillin-resistant Staphylococcus aureus (MRSA) ATCC 700788 and Escherichia coli ATCC 35218. The bacteria used in this study were grown overnight in flasks containing 100 ml Mueller-Hinton broth (Difco cat. nr. 0757-17) in sterile de-ionized water, with shaking, at 37° C. Stocks were store at −70° C. until use.
(§2) Bacteria were incubated on a tryptic soy agar plate containing 5% sheep blood (Becton Dickinson cat. nr. 254053) for 18-24 hours at 35° C. in aerobic conditions (first passage). For the second passage, fresh Mueller-Hinton broth is inoculated with 5-10 colonies and grown overnight at 35° C. until turbidity (reaching log-phase) in aerobic conditions is reached. The bacterial suspension is then adjusted to 0.5 McFarland density and further diluted 1:100 in Mueller Hinton broth medium. This is used as inoculum.
(§3) MIC assays were performed by the broth microdilution method in a 96-well format (flat-bottom microtitre plates) with a final volume of 0.1 ml Mueller Hinton broth containing two-fold serial dilutions of compounds and inoculated with 5×10^5 CFU/ml of bacteria (standard inoculum size according to CLSI guidelines). Inhibitors are typically varied over the range of 63 to 0.49 μM. The final DMSO concentration in the assay was 1.25% (maximum tolerable DMSO concentration=6%). In the assays where the effect of human serum on the activity of the compounds against S. aureus was tested, human serum was added at a final concentration of 10%. The plates were incubated at 35° C. for 16-20 hours. At the end of incubation the bacterial growth was quantified fluorometrically. For this, resazurin was added to all wells and the plates were re-incubated. The incubation time is dependent on the type of bacteria. A change in color from blue to pink indicated the growth of bacteria. The fluorescence was read in computer-controlled fluorometer (Fluoroskan Ascent FL, Labsystems) at an excitation wavelength 540 nm and an emission wavelength of 590 nm. The % growth inhibition achieved by the compounds was calculated according to standard methods. The IC90 (expressed in μg/ml) was defined as the 90% inhibitory concentration for bacterial growth. A panel of reference compounds were simultaneously tested for QC approval.
The results are depicted in the table(s) below (STA+10% HS).

[2] = target: T1, S. aureus ATCC 29213 FabI (Staphylococcus aureus, UniProt Q6GI75); experiment: Staphylococcus aureus FabI enzyme inhibition assay; assay type: biochemical; details: read-out: FabI (300.235) IC50 (converted)
T1 sequence (Q6GI75 1-256): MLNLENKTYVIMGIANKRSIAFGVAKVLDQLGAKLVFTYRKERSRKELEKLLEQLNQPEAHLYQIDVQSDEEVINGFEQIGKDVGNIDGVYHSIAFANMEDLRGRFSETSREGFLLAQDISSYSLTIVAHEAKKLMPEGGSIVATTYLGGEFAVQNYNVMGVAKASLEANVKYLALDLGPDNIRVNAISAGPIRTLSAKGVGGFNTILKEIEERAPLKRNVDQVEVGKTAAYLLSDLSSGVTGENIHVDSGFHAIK
Protocol: Y.1 FabI Enzyme Inhibition: Staphylococcus aureus FabI Enzyme Inhibition Assay
FabI enzyme inhibition assays were carried out in half-area, 384-well microtitre plates. Compounds were evaluated in 40-μl assay mixtures containing 100 mM NaADA, pH 6.5 (ADA=N-[2-acetamido]-2iminodiacetic acid), 250 μM crotonoyl-CoA, 625 μM NADH and 50 μg/ml S. aureus ATCC 29213 FabI. Inhibitors were typically varied over the range of 50 to 0.39 μM. The reaction mixtures were incubated for 30 minutes at room temperature and the reaction was stopped by adding 200 mM Tris buffer (pH 9.0) to create a pH-shift. The consumption of NADH was monitored by measuring the change in absorbance at […]. By comparing sample readings to those of negative (absence of compound) and positive (absence of enzyme) controls, the percent inhibition of enzymatic activity of the compounds was determined A best-fit curve is fitted by a minimum of squares method. From this an IC50-value (expressed in μg/ml), resulting in 50% inhibition of enzymatic activity, was obtained.

[3] = tested on: Staphylococcus aureus ATCC 29213; experiment: Antibacterial susceptibility testing, IC90 determination (STA); assay type: cell-based; details: Staphylococcus aureus, ATCC29213, Staphylococcus aureus ATCC 29213, broth microdilution, resazurin; read-out: STA (361.159) IC90
Protocol: as §1, §2
The result(s) are depicted the table below (for STA ATCC 29213).
as §3

SMILES	CC50 at 72 h [1] [µg/mL]	IC90 (S. aureus) [µg/mL]	IC50 [2] [nM]	IC90 [3] [µg/mL]	melting point
O=C1COCc2cc(/C=C/C(=O)N3C[C@H]4CC(c5ccccc5)=C[C@H]4C3)cnc2N1 (single isomer, unassigned) [compound 53]	> 10.1	0.7	1470	0.37 (≈ 0.922 µM)	272.58 °C
O=C(Nc1ccc(/C=C/C(=O)N2CC3C=C(c4ccccc4)CC3C2)cn1)c1cccnc1 (stereo not drawn) [Cpd. No. 3]	1.23 (≈ 2.82 µM)	0.79	1810	0.21 (≈ 0.481 µM)	238 °C
Cc1cncc(C(=O)Nc2ccc(/C=C/C(=O)N3CC4C=C(c5ccccc5)CC4C3)cn2)c1 (stereo not drawn) [compound 1]	> 4.5	0.67	1820	0.17 (≈ 0.377 µM)	214 °C
O=C(Nc1ccc(/C=C/C(=O)N2CC3C=C(c4ccccc4)CC3C2)cn1)c1ccoc1 (stereo not drawn) [compound 2]	7.57 (≈ 17.8 µM)	1.66	7590	0.21 (≈ 0.494 µM)	202 °C
O=C(Nc1ccc(/C=C/C(=O)N2CC3C=C(c4ccsc4)CC3C2)cn1)c1cccnc1 (stereo not drawn) [compound 4]	0.97 (≈ 2.19 µM)	0.28		< 0.21	236.37 °C and 236 °C
Cc1cncc(C(=O)Nc2ccc(/C=C/C(=O)N3CC4C=C(c5ccsc5)CC4C3)cn2)c1 (stereo not drawn) [compound 5]	10.1 (≈ 22.1 µM)	0.36	1730	< 0.22	208.43 °C
Cc1cncc(C(=O)Nc2ccc(/C=C/C(=O)N3CC4C=C(c5nccs5)CC4C3)cn2)c1 (stereo not drawn) [compound 6]	> 11.5	< 0.22		< 0.22	230.99 °C and 231 °C
Cc1cncc(C(=O)Nc2ccc(/C=C/C(=O)N3CC4C=C(c5ccncc5)CC4C3)cn2)c1 (stereo not drawn) [compound 8]	> 11.3	0.398	1240	0.316 (≈ 0.7 µM)	202.82 °C
CC(=O)Nc1ccc(/C=C/C(=O)N2CC3C=C(c4ccccc4)CC3C2)cn1 (stereo not drawn) [compound 10]	> 9.38	0.5	1070	0.34 (≈ 0.91 µM)	251 °C and 251.61 °C
Cc1occc1C(=O)Nc1ccc(/C=C/C(=O)N2CC3C=C(c4ccccc4)CC3C2)cn1 (stereo not drawn) [compound 11]	5.16 (≈ 11.7 µM)	3.33	3230	0.47 (≈ 1.07 µM)	140 °C
O=C(Nc1ccc(/C=C/C(=O)N2CC3C=C(c4ccccc4)CC3C2)cn1)c1ccncc1 (stereo not drawn) [compound 12]	> 11	1.58	2040	0.5 (≈ 1.15 µM)	184 °C
O=C(Nc1ccc(/C=C/C(=O)N2CC3C=C(c4ccccc4)CC3C2)cn1)c1ccccc1 (stereo not drawn) [compound 13]	> 10.9	5.36	3560	0.76 (≈ 1.75 µM)	120 °C
O=C(Cc1ccncc1)Nc1ccc(/C=C/C(=O)N2CC3C=C(c4ccccc4)CC3C2)cn1 (stereo not drawn) [compound 14]	> 11.3	2.65	1730	0.86 (≈ 1.91 µM)	239.7 °C
Nc1ccc(/C=C/C(=O)N2CC3C=C(c4ccccc4)CC3C2)cn1 (stereo not drawn) [compound 15]	> 8.32	2.43	2350	1.23 (≈ 3.71 µM)	236 °C
Cc1cncc(C(=O)Nc2ccc(/C=C/C(=O)N3CC4C=C(c5ccnn5C)CC4C3)cn2)c1 (stereo not drawn) [compound 16]	> 11.4	1.63	1320	1.25 (≈ 2.75 µM)	173.34 °C
O=C(Cc1ccncc1)Nc1ccc(/C=C/C(=O)N2CC3C=C(c4ccncc4)CC3C2)cn1 (stereo not drawn) [compound 17]	> 4.51	1.4	1440	1.33 (≈ 2.95 µM)	> 250 °C
COC(=O)CCC(=O)Nc1ccc(/C=C/C(=O)N2CC3C=C(c4ccccc4)CC3C2)cn1 (stereo not drawn) [compound 18]	> 11.2	3.05	2560	1.6 (≈ 3.59 µM)	216 °C and 216.42 °C
Cc1cc(C(=O)Nc2ccc(/C=C/C(=O)N3CC4C=C(c5ccccc5)CC4C3)cn2)c(C)o1 (stereo not drawn) [compound 19]	10.8 (≈ 23.7 µM)	16.1	4670	1.61 (≈ 3.55 µM)	184.41 °C
COc1cncc(C(=O)Nc2ccc(/C=C/C(=O)N3CC4C=C(c5ccncc5)CC4C3)cn2)c1 (stereo not drawn) [compound 30]	> 11.7	< 0.23	1390	< 0.23	142 °C
O=C1Nc2ncc(/C=C/C(=O)N3CC4C=C(c5ccccc5)CC4C3)cc2C(=O)N2CCNCC12 (stereo not drawn) [compound 81]		0.43		0.45 (≈ 0.958 µM)	230 to 232 °C
